From article PMC8541628, “Development of Novel Quinoline-Based Sulfonamides as Selective Cancer-Associated Carbonic Anhydrase Isoform IX Inhibitors” (International Journal of Molecular Sciences, 2021)

Tests used:
[1] = target: hCA I (Homo sapiens, UniProt P00915); test: stopped flow carbon dioxide hydrase assay, hCA I
[2] = target: hCA II (Homo sapiens, UniProt P00918); test: stopped flow carbon dioxide hydrase assay, hCA II
[3] = target: hCA IX (Homo sapiens, UniProt Q16790); test: stopped flow carbon dioxide hydrase assay, hCA IX; details: for Selectivity ratio I/IX: hCA IX over hCA I; for Selectivity ratio II/IX: hCA IX over hCA II
[4] = target: hCA XII (Homo sapiens, UniProt O43570); test: stopped flow carbon dioxide hydrase assay, hCA XII; details: for Selectivity ratio I/XII: hCA XII over hCA I; for Selectivity ratio II/XII: hCA XII over hCA II
[5] = tested on: MDA-MB-231; test: 72 h MTT anti-proliferative assay under hypoxic conditions, MDA-MB-231; type: cell-based; details: Homo sapiens, mean ± S.D. of three experiments
Source text: (§1) 1. Carbonic anhydrase inhibition assay
The enzymes are recombinant proteins prepared in our lab.
parameters and inhibition constants.
2. Anti-proliferative action toward human breast cell lines

[6] = tested on: MCF-7; test: 72 h MTT anti-proliferative assay under hypoxic conditions, MCF-7; type: cell-based; details: Homo sapiens, MCF7, mean ± S.D. of three experiments
Protocol: Therefore, QBS 11c and 13b were further screened for their potential in vitro anti-proliferative action against two breast cancer cell lines (MDA-MB-231 and MCF-7) under hypoxic conditions, exploiting a 72 h MTT assay protocol and using Doxorubicin as a positive control drug.
All adopted procedures for the conducted in vitro biological assays were performed as described earlier; CA (stopped-flow), cytotoxicity (MTT [37, 38]), and assessment of apoptotic markers assays, as well as induction of hypoxia with cobalt chloride, and were mentioned in the Supporting Materials.
as §1
16) herein reported have were assayed utilizing an instrument of Applied Photophysics stopped-flow. The enzymes are recombinant proteins prepared in our lab. Phenol red (at a concentration of 0.2 mM) has been used as indicator, working at the absorbance maximum of 557 nm, with 20 mM Hepes (pH 7.5) as buffer, and 20 mM Na2SO4 (for maintaining constant the ionic strength), […]
parameters and inhibition constants. For each inhibitor at least six traces of the initial 5-10% of the reaction have been used for determining the initial velocity . Th e un cat aly zed rates were determined in the same manner and subtracted from the total observed rates. Stock solutions of inhibitor (0.1 mM) were prepared in distilled-deionized water and dilutions up to 0.01 nM were done thereafter with the assay buffer. Inhibitor and enzyme solutions were preincubated together for 15 min at room temperature prior to assay, in order to allow fo r the formation of the E-I complex. […]
Cells were sub-cultured with try psine /EDTA solution, counted with haemocy tometer and plated onto 96-well plates (5000 cells/well) and left overnight to form a semi-confluent […]
monolay er. […] DMSO (100 µl/well) was added to dissolve the formazan crystals with shaking for 10 min after which the absorbance was read at 590 nm against no cell blanks on a FLuo Star Optima microplate reader (BMG technologies, Germany). Cell proliferation was calculated comparing the OD values of the DMSO control wells and those of the samples

hCA XII, sequence (O43570 25-354): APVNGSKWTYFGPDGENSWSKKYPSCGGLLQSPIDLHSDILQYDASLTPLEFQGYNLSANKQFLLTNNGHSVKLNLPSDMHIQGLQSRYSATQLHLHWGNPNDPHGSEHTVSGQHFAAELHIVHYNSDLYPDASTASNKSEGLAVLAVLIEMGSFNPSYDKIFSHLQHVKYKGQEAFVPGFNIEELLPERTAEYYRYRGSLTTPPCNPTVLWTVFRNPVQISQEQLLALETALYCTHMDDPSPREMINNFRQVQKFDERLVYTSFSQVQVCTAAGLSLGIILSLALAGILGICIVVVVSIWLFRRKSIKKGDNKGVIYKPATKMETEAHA
hCA I, sequence (P00915 whole entry): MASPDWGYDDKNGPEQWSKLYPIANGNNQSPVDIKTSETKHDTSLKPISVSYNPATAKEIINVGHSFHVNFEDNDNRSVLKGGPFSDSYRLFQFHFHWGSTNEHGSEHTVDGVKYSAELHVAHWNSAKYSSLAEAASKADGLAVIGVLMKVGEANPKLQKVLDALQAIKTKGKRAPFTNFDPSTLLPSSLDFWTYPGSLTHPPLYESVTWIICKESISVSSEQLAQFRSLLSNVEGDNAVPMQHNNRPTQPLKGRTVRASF

melting point [°C]	Ki [1] [nM]	Ki [2] [nM]	Ki [3] [nM]	Selectivity ratio I/IX [3]	Selectivity ratio II/IX [3]	Ki [4] [nM]	Selectivity ratio I/XII [4]	Selectivity ratio II/XII [4]	Structure (SMILES)	IC50 [5] [nM]	IC50 [6] [nM]
248 to 250	2260	998	853	2.6	1.2	152	14.8	6.6	COc1ccc2nccc(Nc3ccc(C)c(S(N)(=O)=O)c3)c2c1 [11f, 5-((6-methoxyquinolin-4-yl)amino)-2-methylbenzenesulfonamide]	–	–
272 to 274	663	265	70.1	9.5	3.8	41.2	16.1	6.4	Cc1ccc2nccc(Nc3cccc(S(N)(=O)=O)c3)c2c1 [11a, 3-((6-methylquinolin-4-yl)amino)benzenesulfonamide]	–	–
172 to 174	105	221	52.9	2.0	4.2	34	3.1	6.5	NS(=O)(=O)c1cccc(Nc2ccnc3cc(C(F)(F)F)cc(C(F)(F)F)c23)c1 [11d, 3-((5,7-bis(trifluoromethyl)quinolin-4-yl)amino)benzenesulfonamide]	–	–
280 to 282	3500	1500	104	33.8	14.5	88.1	39.7	17.1	Cc1ccc2nccc(Nc3ccc(C)c(S(N)(=O)=O)c3)c2c1 [11e, 2-methyl-5-((6-methylquinolin-4-yl)amino)benzenesulfonamide]	–	–
244 to 246	258	366	86.5	3.0	4.2	73.1	3.5	5.0	COc1ccc2nccc(Nc3cccc(S(N)(=O)=O)c3)c2c1 [11b, 3-((6-methoxyquinolin-4-yl)amino)benzenesulfonamide]	–	–
270 to 272	78.4	36.5	25.8	3.0	1.4	9.8	8.0	3.7	Cc1ccc2nccc(Nc3ccc(S(N)(=O)=O)cc3)c2c1 [13a, 4-((6-methylquinolin-4-yl)amino)benzenesulfonamide]	–	–
284 to 286	55.4	7.3	18.6	3.0	0.4	8.7	6.4	0.8	NS(=O)(=O)c1ccc(Nc2ccnc3ccc(Cl)cc23)cc1 [13c, 4-((6-chloroquinolin-4-yl)amino)benzenesulfonamide]	–	–
282 to 285	4520	2360	116	38.9	20.3	92.7	48.8	25.4	Cc1ccc(Nc2ccnc3ccc(Cl)cc23)cc1S(N)(=O)=O [11g, 5-((6-chloroquinolin-4-yl)amino)-2-methylbenzenesulfonamide]	–	–

The remaining lines, values behind:

Structure (SMILES)	melting point [°C]	Ki [1] [nM]	Ki [2] [nM]	Ki [3] [nM]	Selectivity ratio I/IX [3]	Selectivity ratio II/IX [3]	Ki [4] [nM]	Selectivity ratio I/XII [4]	Selectivity ratio II/XII [4]	IC50 [5] [nM]	IC50 [6] [nM]
NS(=O)(=O)c1ccccc1Nc1ccnc2ccc(Cl)cc12 [9c, 2-((6-chloroquinolin-4-yl)amino)benzenesulfonamide]	258 to 260	1240	86.8	65.6	18.9	1.3	38.4	32.3	2.3	–	–
NS(=O)(=O)c1ccccc1Nc1ccnc2cc(C(F)(F)F)cc(C(F)(F)F)c12 [9d, 2-((5,7-bis(trifluoromethyl)quinolin-4-yl)amino)benzenesulfonamide]	–	1560	112	–	–	–	–	–	–	–	–
COc1ccc2nccc(Nc3ccccc3S(N)(=O)=O)c2c1 [9b, 2-((6-methoxyquinolin-4-yl)amino)benzenesulfonamide]	275 to 277	864	49.7	39.2	22.1	1.3	42.1	20.5	1.2	–	–
COc1cccc2c1C(=O)c1c(O)c3c(c(O)c1C2=O)C[C@@](O)(C(=O)CO)C[C@@H]3O[C@H]1C[C@H](N)[C@H](O)[C@H](C)O1 [Doxorubicin, reference compound]	–	–	–	–	–	–	–	–	–	1670 ± 80	3040 ± 140
Cc1ccc2nccc(Nc3ccccc3S(N)(=O)=O)c2c1 [9a, 2-((6-methylquinolin-4-yl)amino)benzenesulfonamide]	264 to 265	558	78.4	36.4	15.3	2.2	22.8	24.5	3.4	–	–
COc1ccc2nccc(NNC(=O)c3ccc(S(N)(=O)=O)cc3)c2c1 [compound 16, 4-(2-(6-Methoxyquinolin-4-yl)hydrazine-1-carbonyl)benzenesulfonamide]	228 to 230	81.4	31.1	21.7	3.8	1.4	25.4	3.2	1.2	–	–
